Experimental data published in patent US12110286B2, “Benzimidazolone derived inhibitors of BCL6” (Cancer Research Technology Limited, priority 2017, dated 2024).
Like-named read-outs stand apart in the source and are kept apart here.

Columns and labels:
endogenous BCL6 protein = endogenous BCL6 protein (Homo sapiens (Human), UniProt P41182); test: Immunofluorescence-based BCL6 degradation assay; type: cell-based; conditions: 2 hours with compound
Experimental: Immunofluorescence-Based BCL6 Degradation Assay
DC50 values (compound concentration at which 50% of endogenous BCL6 protein is degraded) were determined in SUDHL-4 cells (American Type Culture Collection) in an immunofluorescence-based assay using an InCell2200 high content imaging system (GE Healthcare). […] After 20 hours cell culture at 37° C./CO2 incubator, compounds were dispensed in the cell culture plate using ECHO550 acoustic dispenser (Labcyte, Inc.), as 8 point-concentration response (ranging from 5 nM to 10 μM) in 0.67% final DMSO concentration. Cells were incubated with compound for 2 hours at 37° C./CO2 incubator followed by fixation in 4.5% formaldehyde (37% formaldehyde solution, Sigma catalogue F8775) at room temperature for 15 min. […] Blocking and cell permeabilisation were performed by incubating the fixed cells for 1 hour at room temperature in 1×TBS, 5% BSA, 1% Triton X100, followed by three washes on PW384 plate washer. Primary and secondary antibodies were prepared in 1×TBS, 1% BSA, 0.2% Triton X100. […] After incubation in each antibody, cells were washes four times in 1×TBS-0.05% tween on PW384 plate washer. Cells were finally incubated for 60 min with nuclear staining RedDot2 dye (Biotium) at 0.5× the stock concentration in 1×TBS. BCL6 expression in the absence or presence of compound was detected on InCell2200 with 20× objective and quantified on InCell Analyser 3.7.2 workstation (GE Healthcare). The % response at each concentration was calculated by normalising BCL6 expression in the presence of compound to the appropriate high (DMSO) and low (DMSO with 7 μM CCT369260) controls.

[1] = target: Trx-6×His-BCL6 (human BCL6 BTB domain covering amino-acid sequence 5-129) (Homo sapiens (Human), UniProt P41182); test: HTRF in vitro assay (BCL6 / BCOR-AF633 peptide); type: binding; conditions: for IC50: read-out: HTRF pIC50 (converted)
Experimental: The % inhibition at each concentration was calculated by normalising FRET ratio to the appropriate high (DMSO with all reagents) and low (DMSO without BCL6) controls.

SU-DHL-4 cells = test: 14-day cell proliferation assay (CellTiter Glo); type: cell-based; conditions: Homo sapiens, SU-DHL-4, 336 h; SU-DHL4 cells, 14 days
Experimental: 14-Day Cell Proliferation Assay
SU-DHL-4 cells were seeded in 96-well culture plates at a density of 2000 cells/well in RPMI-1640 medium (Sigma-Aldrich) supplemented with 10% FBS (Gibco). Compounds were initially dispensed into 96-well U-bottom plates using an Echo 550 acoustic dispenser (Labcyte Inc.), then diluted in RPMI-1640 medium and transferred onto the cells. Cells were treated with 8 compound concentrations in duplicate, ranging from 1 nM to 10 μM, in a final DMSO concentration of 0.1% and final volume of 100 μl. Cells were incubated with compound for 14 days, with medium changes at days 3, 7 and 10 carried out as follows: fresh 96-well cell culture plates were prepared containing 100 μl medium plus compound at the assay concentrations (white plates were used on day 10 to optimise luminescence measurement). Assay plates containing cells were vortexed to mix and cell density in one control well was counted using a Coulter Z2 cell counter (Beckman Coulter). The volume of medium containing 2000 cells in the control well was calculated and this volume of cells was transferred from every well of the assay plates to the corresponding well of the fresh plates containing compound. After 14 days, CellTiter Glo reagent (Promega) was added to the medium in each well of the assay plate at a ratio of 1:2, mixed on a plate shaker, then incubated at room temperature for 10 minutes. Luminescence was measured using an Envision plate reader (Perkin Elmer) and the relative luminescence at each compound concentration, compared to DMSO alone, was calculated. G150 were determined using a 4-parameter curve fit in Dotmatics (Bishops Stortford, UK).

[2] = target: BCL6-NCOR2(SMRT) corepressor protein-protein interaction (Homo sapiens (Human), UniProt P41182); test: NanoBRET cell assay; type: cell-based; conditions: transfected HEK293T cells, 6 hr; for IC50: read-out: NanoBRET cell pIC50 (converted)
Experimental: A cellular nano-Bioluminescence Resonance Energy Transfer (nanoBRET) assay (Promega NanoBRET Nano-Glo Detection System, catalogue number N1662) was used to detect inhibition of the BCL6-NCOR2(SMRT) corepressor protein-protein interaction. DNA encoding full length BCL6 and NCOR2 were inserted into pFC32K.NanoLuc and pFC14K.HaloTag vectors (Promega) to produce C-terminal tagged fusion proteins BCL6-nanoLuc and NCOR2-HaloTag, respectively. HEK293T cells were plated (5×10^5) in T75 tissue culture flask and bulk transfected 48 hours later with Fugene 6 (Promega cat. #E2691) reagent and 18 μg total DNA plasmids encoding BCL6-nanoLuc as donor and NCOR2-HaloTag as acceptor, at a donor:acceptor DNA ratio of 1:25. At 24 hr post-transfection, HEK293T cells were collected and stored in liquid nitrogen in 90% FBS (PAN Biotech UK) and 10% DMSO. […] Frozen transfected HEK293T cells were thawed, centrifuged and freezing medium was replaced by phenol red-free OptiMEM+4% FBS (Life Technology). […] Cells were incubated for 6 hr at 37° C./5% C02 then NanoBRET furimazine substrate (Promega) was added to give a final concentration of 10 μM. After a short centrifugation the plates were read on an Envision (Perkin Elmer) plate reader equipped with a LUM/D600 Dual mirror, Lum 450/40 nm bandpass and D605 nm longpass filters, with a 0.2 sec reading to determine the BRET ratio. The % inhibition at each test concentration was calculated by normalising the BRET ratio to the appropriate high and low controls.

[3] = further generated data, 1 nM Trx-6×His-BCL6, 300 nM BCOR-AF633 peptide, 0.5 nM anti-6×His-Terbium cryptate
[4] = initially generated data, 10 nM Trx-6×His-BCL6, 300 nM BCOR-AF633 peptide, 1 nM anti-6×His-Terbium cryptate

SMILES | HTRF pIC50 [1, 3] | GI50 (SU-DHL-4 cells) | IC50 ([2]; further generated data) | also measured
COCC1CN(c2ncc(Cl)c(Nc3ccc4c(c3)n(CCC(C)(C)O)c(=O)n4C)n2)CCC1(F)F (stereo not drawn) [Example 35b, 5-((5-chloro-2-(4,4-difluoro-3-(methoxymethyl)piperidin-1-yl)pyrimidin-4-yl)amino)-3-(3-hydroxy-3-methylbutyl)-1-methyl-1,3-dihydro-2H-benzo[d]imidazol-2-one] | 6.70 | 1840 nM |  | Degradation assay in SU-DHL4 cells (pDC50) (endogenous BCL6 protein): 6.35
C[C@@H]1C[C@H](C)CN(c2ncc(Cl)c(Nc3ccc4c(c3)n(CCC(C)(C)O)c(=O)n4C)n2)C1 [Example 20e] |  | 350 nM |  | 
Cn1c(=O)n(CCC(C)(C)O)c2cc(Nc3nc(N4CCC(F)(F)C(CO)C4)ncc3Cl)ccc21 (stereo not drawn) [Example 35a, 5-((5-chloro-2-(4,4-difluoro-3-(hydroxymethyl)piperidin-1-yl)pyrimidin-4-yl)amino)-3-(3-hydroxy-3-methylbutyl)-1-methyl-1,3-dihydro-2H-benzo[d]imidazol-2-one] |  | 1140 nM |  | 
Cn1c(=O)n(CCC(C)(C)O)c2cc(Nc3nc(N4CCCC(C(F)(F)F)C4)ncc3Cl)ccc21 (stereo not drawn) [Example 20h] | 6.49 |  |  | Degradation assay in SU-DHL4 cells (pDC50) (endogenous BCL6 protein): 6.30
CC1CCCN(c2ncc(Cl)c(Nc3ccc4c(c3)n(CCC(C)(C)O)c(=O)n4C)n2)C1.O=CO (stereo not drawn) [Example 20g] | 6.07 | 750 nM |  | Degradation assay in SU-DHL4 cells (pDC50) (endogenous BCL6 protein): 6.29
CC1CN(c2ncc(Cl)c(Nc3ccc4c(c3)n(CCC(C)(C)O)c(=O)n4C)n2)CCC1(F)F (stereo not drawn) [Example 35c, 5-((5-chloro-2-(4,4-difluoro-3-methylpiperidin-1-yl)pyrimidin-4-yl)amino)-3-(3-hydroxy-3-methylbutyl)-1-methyl-1,3-dihydro-2H-benzo[d]imidazol-2-one] | 6.53 | 440 nM |  | Degradation assay in SU-DHL4 cells (pDC50) (endogenous BCL6 protein): 6.75
Cn1c(=O)n(CCC(C)(C)O)c2cc(Nc3nc(N4CCC(C(F)(F)F)CC4)ncc3Cl)ccc21 [Example 35g, 5-((5-chloro-2-(4-(trifluoromethyl)piperidin-1-yl)pyrimidin-4-yl)amino)-3-(3-hydroxy-3-methylbutyl)-1-methyl-1,3-dihydro-2H-benzo[d]imidazol-2-one] | 6.12 |  | 2240 nM | 
C[C@@H]1CN(c2ncc(Cl)c(Nc3ccc4c(c3)n(CCC(C)(C)O)c(=O)n4C)n2)C[C@H](C2CC2)O1 [Example 21a, 5-((5-chloro-2-((2S,6R)-2-cyclopropyl-6-methylmorpholino)pyrimidin-4-yl)amino)-3-(3-hydroxy-3-methylbutyl)-1-methyl-1,3-dihydro-2H-benzo[d]imidazol-2-one] |  |  | 1350 nM | IC50 [1, 3]: 100 nM
C[C@@H]1CN(c2ncc(Cl)c(Nc3ccc4c(c3)n(CCC(C)(C)O)c(=O)n4C)n2)C[C@H](C)C1(F)F [Example 20a, 5-((5-chloro-2-((3R,5S)-4,4-difluoro-3,5-dimethylpiperidin-1-yl)pyrimidin-4-yl)amino)-3-(3-hydroxy-3-methylbutyl)-1-methyl-1,3-dihydro-2H-benzo[d]imidazol-2-one] |  | 70 nM |  | 
Cc1nn(-c2ncc(Cl)c(Nc3ccc4c(c3)n(CCC(C)(C)O)c(=O)n4C)n2)c(C)c1Cl [Example 15n] | 6.35 |  | 1820 nM | 
CCC(C)(O)CCn1c(=O)n(C)c2ccc(Nc3nc(N4CCC(C(=O)N(C)C)CC4)ncc3Cl)cc21 (stereo not drawn) [Example 15l] | 6.63 |  | 1320 nM | 
Cn1c(=O)n(CCC(C)(C)O)c2cc(Nc3cc(N4CCC(F)(F)CC4)ncc3Cl)ccc21 [Example 36a, 5-((5-chloro-2-(4,4-difluoropiperidin-1-yl)pyridin-4-yl)amino)-3-(3-hydroxy-3-methylbutyl)-1-methyl-1,3-dihydro-2H-benzo[d]imidazol-2-one] |  |  |  | Degradation assay in SU-DHL4 cells (pDC50) (endogenous BCL6 protein): 6.35; IC50 [1, 3]: 813 nM
CN(C)C(=O)C1CCN(c2ncc(Cl)c(Nc3ccc4c(c3)n(CCC(C)(C)O)c(=O)n4C)n2)CC1 [Example 20c] | 6.60 |  | 2140 nM | 
C[C@@H]1CN(c2ncc(Cl)c(Nc3ccc4c(c3)n(CCC(C)(C)O)c(=O)n4C)n2)C[C@H](C)N1C [Example 35l, 5-((5-chloro-2-((3S,5R)-3,4,5-trimethylpiperazin-1-yl)pyrimidin-4-yl)amino)-3-(3-hydroxy-3-methylbutyl)-1-methyl-1,3-dihydro-2H-benzo[d]imidazol-2-one] | 6.76 |  | 1510 nM | 
Cn1c(=O)n(CCC(C)(C)O)c2cc(Nc3nc(N4C5CC6CC(C5)CC4C6)ncc3Cl)ccc21 [Example 35t, 5-((2-((1r,3r,5r,7r)-2-azaadamantan-2-yl)-5-chloropyrimidin-4-yl)amino)-3-(3-hydroxy-3-methylbutyl)-1-methyl-1,3-dihydro-2H-benzo[d]imidazol-2-one] | 6.46 |  | 2340 nM | 
Cc1cc(Nc2ccc3c(c2)n(CCC(C)(C)O)c(=O)n3C)c(C#N)c(Cl)n1 [Example 1b, 2-chloro-4-[[3-(3-hydroxy-3-methyl-butyl)-1-methyl-2-oxo-benzimidazol-5-yl]amino]-6-methyl-pyridine-3-carbonitrile] |  |  |  | NanoBRET cell pIC50 ([2]; further generated data): 5.28; IC50 ([2]; initially generated data): 5250 nM; HTRF pIC50 [1, 4]: 6.09
CNC(=O)c1cc(Nc2ccc3c(c2)n(CC[C@@H](C)O)c(=O)n3C)c(C#N)c(Cl)n1 [Example 4, 6-Chloro-5-cyano-4-[[3-[(3R)-3-hydroxybutyl]-1-methyl-2-oxo-benzimidazol-5-yl]amino]-N-methyl-pyridine-2-carboxamide] | 5.79 |  |  | NanoBRET cell pIC50 ([2]; further generated data): 5.20; IC50 ([2]; initially generated data): 6310 nM; HTRF pIC50 [1, 4]: 5.99
CC(C)(O)CCn1c(=O)n(CCC(C)(C)O)c2ncc(Nc3nc(N4CC(C)(C)OC(C)(C)C4)ncc3Cl)cc21 [Example 35q, 6-((5-chloro-2-(2,2,6,6-tetramethylmorpholino)pyrimidin-4-yl)amino)-1,3-bis(3-hydroxy-3-methylbutyl)-1,3-dihydro-2H-imidazo[4,5-b]pyridin-2-one] | 6.63 |  | 1700 nM | 
